Data set [1] relates to A549 cell-derived exosome / A549 cells. Nature of the data set: confocal microscopy of peptide internalization with exosomes. The conditions noted are these: 10 uM FITC-conjugated peptide, DiD-labeled exosomes, 37° C., 1 hour. In kind it is cell-based, human. As for the experimental part: Media of A549, HEK293, and MDA-MB231 cells were collected, exosomes were isolated through ultracentrifugation, and exosomes were labeled with DiD fluorescence reagent (red), followed by a reaction with ExoPep peptide (FITC label, green). After the reaction, the cells were immobilized, and the nuclei were stained with DAPI (blue) to analyze with confocal microscopy. More specifically, the isolated exosomes and DiD (1:200 dilution) were reacted on a stirrer at 37° C. for 30 minutes. After adding Exoquick reagent, condition was maintained at 4° C. for 30 minutes, and then DiD-labeled exosomes were precipitated by centrifugation at 13000 rpm for 3 minutes. Thereafter, a mixture of 10 uM FITC-conjugated peptide and DiD-labeled exosomes was reacted with A549 cells at 37° C. for 1 hour. After washing three times, immobilization was performed using 2% paraformaldehyde (PFA). After washing again, cells were treated with 4′-6-diamidino-2-phenylindole (DAPI) for nucleus staining. Finally, after mounting, observation was followed using a confocal microscope (Zeiss, Oberkochen, Germany).

The subject of data set [2] is exosomes derived from LLC mouse lung cancer cells. The experiment in a line: flow cytometry binding of FITC-labeled peptide to exosomes. The settings on record: 4° C. An excerpt: (§1) 5 types of peptides (CTDTKIK, CRLSKKS, CRKVAKG, CRKRPAL, CAVRRKL) were synthesized based on the result of ELISA shown in FIG. 3. In order to investigate the binding of candidate peptides by FACS method, a peptide in which fluorescein isothiocyanate (FITC), a fluorescent substance, is conjugated to the carboxy terminus was synthesized by requesting Peptron Co. (Daegeon, Korea). Each peptide was synthesized by standard Fmoc method and purified by […]. In addition, FITC-labeled NSSSVDK peptide was used as a control.
(§2) In order to observe the peptide binding to the exosomes, biotin and exosomes were first combined in the same manner as described in FIG. 3, and then the exosomes were immobilized by binding with avidin beads. The exosome-bead complex was blocked for non-specific binding through treatment of 1% bovine serum albumin (BSA) dissolved in phosphate buffer for 30 minutes at room temperature. After washing, the FITC-labeled peptide was bound to the exosome-bead complex at 4° C. for 30 minutes. After the reaction, the binding of the peptide to the exosomes was analyzed using a flow cytometer.
(§3) On the other hand, in order to observe the peptide binding to the exosome-producing cells, 1×10^6 cells were first prepared. Each cell medium was treated with 1% BSA at 37° C. for 30 minutes. Thereafter, the FITC-labeled peptide was bound at 4° C. for 1 hour. After the reaction, the binding of the peptide to the cells was analyzed using a flow cytometer.

Data set [3] deals with exosomes derived from HepG2 liver cancer cells. The description is as above. The conditions noted are these: 4° C.
Source text: as §1, §2, §3

Data set [4] relates to exosomes derived from HT-29 colorectal cancer cells. Described as above. The settings on record: 4° C.
Source text: as §1, §2, §3

The test system of data set [5] is exosomes derived from normal MCF10A cells. The description is as above. The settings on record: 4° C.
Source text: as §1, §2, §3

For data set [6], the system named is recipient cell A549. Nature of the data set: internalization of peptide with blood-derived exosomes into cells. The conditions noted are these: DiD-labeled exosomes, FITC-labeled peptide. In kind it is cell-based, human. As for the experimental part: In order to observe internalization of peptides into cells, exosomes were labeled with DiD, reacted with FITC-labeled peptides, and treated to A549 cells. Cells were immobilized with 4% paraformaldehyde for 5 minutes and stained with DAPI, followed by observation under a microscope.

The test system of data set [7] is A549 tumor mice. The experiment in a line: in vivo distribution imaging of DiD-labeled exosomes with or without ExoPep. Also on record: species or system mouse. The conditions noted are these: without exosomes. As to the method:
DiD-labeled A549 tumor mouse blood-derived exosomes and A549 cell-derived exosomes were reacted with ExoPep peptide, and image monitoring was performed for in vivo distribution. Tumor xenograft mice were prepared by subcutaneously implanting A549 cell suspension (5×10^6 cells) along with PBS into the right flank of 5-week-old female BALB/c nude mice. When the tumor size reached a volume of approximately 100-200 mm^3, the mice were anesthetized. A549 tumor mice was intravenously administered with DiD-labeled A549 tumor mouse blood-derived exosomes (mEXO) and a product obtained by reacting the exosomes (mEXO) with peptides (mEXO+ExoPep, n=3) as well as DiD-labeled A549 cell-derived exosomes (cEXO) and a product obtained by reacting the exosomes (cEXO) with peptides (cEXO+ExoPep, n=3). The inventors of the present disclosure used FITC-labeled control peptide and ExoPep (n=3) as controls. In vivo fluorescence images were analyzed using an IVIS imaging system (Caliper Life Sciences, Massachusetts, USA) at various time points (2, 4, 8, and 24 hours, respectively) after administration of DiD-labeled exosomes. In vitro fluorescence images of excised tumors and organs were collected 24 hours after administration. All major organs (liver, kidney, spleen, heart, and lung) having tumor tissues were separated, washed with PBS, and subjected to in vitro fluorescence analysis (n=3).

The subject of data set [8] is red blood cells. The experiment in a line: in vitro hemolysis assay. The conditions noted are these: various concentrations up to a final concentration of 200 μM, 37° C., 1 hour. In kind it is cell-based. As for the experimental part:
Next, an in vitro hemolysis assay was performed. In vitro hemolysis assay, as an indicator of hemolysis of red blood cells after exposure to a drug or an agent, was conducted by measuring the hemoglobin release in plasma. This is an accurate, sensitive method to predict the hemolytic activity of a drug. Fresh blood was centrifuged at 500×g for 10 minutes, and the pellet of red blood cells was washed 3 times and re-suspended in 10 mM PBS in pH 7.4. Equal volumes of red blood cells were reacted with various concentrations of ExoPep peptide by stirring at 37° C. for 1 hour. The samples were then centrifuged at 4° C. at 500×g for 10 minutes. RBC lysis was measured by analyzing absorbance at OD 540 nm depending on the concentration of different peptides. […] The hemolytic activity of the peptide was calculated in a percentage using the following equation.
H=100×(OP−OB)/(OT−OB) Equation:
In the equation above, OP, OB, and OT represent optical density of the peptide solution at an indicated concentration, optical density of a buffer, and optical density of Triton X 100, respectively.

For data set [9], the system named is exosomes derived from normal HEK293 cells. Nature of the data set: inhibition of exosome internalization by magnetic removal of peptide-bound exosomes. The settings on record: exosomes pretreated with biotin-labeled peptide, then removed with magnet. In kind it is cell-based. As for the experimental part: In order to further identify the binding specificity of the ExoPep peptide to the A549 cell-derived exosome, the exosomes were labeled with a DID fluorescent dye, reacted with the biotin-labeled ExoPep peptide, and then conjugated with biotin by reacting the labeled avidin with magnetic particles. The complex of exosomes/biotin-peptide/avidin-magnetic particles prepared by the reaction was captured and removed using a magnet, and the remaining exosomes were treated to recipient cells (FIG. 5A).
On the other hand, internalization of exosomes into recipient cells was not reduced by pretreatment with the control peptide (sequence: NSSSVDK) (FIG. 5B). In addition, when a similar experiment was conducted on exosomes derived from normal HEK293 cells, the internalization of exosomes into recipient cells was not inhibited by the ExoPep peptide of an example embodiment of the present disclosure as well as the control peptide (FIG. 5C).

With CRKVAKG [ExoPep], the “peptide observed in cells (internalization with exosomes)” value in data set [1] is recorded as “observed along with the exosomes in A549 cells”. Further, the “binding to exosomes compared to exosome-producing cell” value in [2] was “very low binding, or no higher binding”; in data set [3], “very low binding, or no higher binding”; in [4], “very low binding, or no higher binding”; in data set [5], “very low binding, or no higher binding”. The “internalization into recipient cell, tumor versus normal mouse blood-derived exosome” value in data set [6] was “internalized more”. For the same substance, the “fluorescence signal of FITC-labeled peptide itself” value in [7] is “low signals”. For the same substance, the hemolytic activity result in [8] is “only low levels of hemolytic activity”. Moreover, the “internalization of exosomes into recipient cells” value in data set [9] is given as “not inhibited”.

(Values after patent US20230295229A1, “PEPTIDE SELECTIVELY BINDING TO CANCER CELL-DERIVED EXOSOME, AND USES THEREOF” (KYUNGPOOK NATIONAL UNIVERSITY INDUSTRY-ACADEMIC COOPERATION …, priority 2020, published 2023).)
